The text below walks through data of article PMC9340777 (Journal of Medicinal Chemistry, 2022).

A short description of data set [1]: physchem. The following applies: buffer, pH 6.5.
Data set [2] in a line: physchem. The following applies: buffer.
Data set [3] is described as follows: in vitro. The following applies: rat, pH 7.2, rat blood T1/2 (h) pH 7.2.
The conditions of data set [4]: Han Wistar, rat, pH 6.8.
The nature of data set [5]: in vitro. The following applies: male, Wistar Han, rat, tissue homogenate, pH 6.8.
The conditions of data set [6]: rat, in vivo.
For data set [7] the following is noted: pH 6.5.

In “physchem [1]”, `CC(OC(=O)CCCCN)OC(=O)N1CCC(OC(=O)C(O)(c2ccccc2)c2ccccc2)CC1.Cl` (stereo not drawn) [Compound 6, 1-((5-Aminopentanoyl)oxy)ethyl-4-(2-hydroxy-2,2-diphenylacetoxy)piperidine-1-carboxylate Hydrochloride] had a half-life of less than 0.01 h.
The same measure, in the same setting: under `CC(OC(=O)[C@@H]1CCCN1)OC(=O)N1CCC(OC(=O)C(O)(c2ccccc2)c2ccccc2)CC1.Cl` (stereo partly drawn) [Compound 9, 1-((L-Prolyl)oxy)ethyl-4-(2-hydroxy-2,2-diphenylacetoxy)piperidine-1-carboxylate Hydrochloride] stands 0.14 h; under `CC(C)C[C@H](N)C(=O)OC(C)OC(=O)N1CCC(OC(=O)C(O)(c2ccccc2)c2ccccc2)CC1.Cl` (stereo partly drawn) [Compound 13, 1-((L-Leucyl)oxy)ethyl-4-(2-hydroxy-2,2-diphenylacetoxy)piperidine-1-carboxylate Hydrochloride], 5.09 h.
On the same count and under the same terms, under `CC(OC(=O)[C@@H](N)C(C)C)OC(=O)N1CCC(OC(=O)C(O)(c2ccccc2)c2ccccc2)CC1.Cl` (stereo partly drawn) [Compound 14, 1-((L-Valyl)oxy)ethyl-4-(2-hydroxy-2,2-diphenylacetoxy)piperidine-1-carboxylate Hydrochloride] stands 15.8 h; under `CC(OC(=O)[C@@H](N)C(C)(C)C)OC(=O)N1CCC(OC(=O)C(O)(c2ccccc2)c2ccccc2)CC1.Cl` (stereo partly drawn) [Compound 15, 1-(((S)-2-Amino-3,3-dimethylbutanoyl)oxy)ethyl-4-(2-hydroxy-2,2-diphenylacetoxy)piperidine-1-carboxylate Hydrochloride], 12.2 h.
Same read-out and setting: under `CC[C@H](C)[C@H](N)C(=O)OC(C)OC(=O)N1CCC(OC(=O)C(O)(c2ccccc2)c2ccccc2)CC1.Cl` (stereo partly drawn) [Compound 16, 1-((L-Isoleucyl)oxy)ethyl-4-(2-hydroxy-2,2-diphenylacetoxy)piperidine-1-carboxylate Hydrochloride] stands 13.9 h.
With `CC(OC(=O)[C@@H](N)CCCCN)OC(=O)N1CCC(OC(=O)C(O)(c2ccccc2)c2ccccc2)CC1.Cl.Cl` (stereo partly drawn) [Compound 17, 1-((L-Lysyl)oxy)ethyl-4-(2-hydroxy-2,2-diphenylacetoxy)piperidine-1-carboxylate Dihydrochloride], the values for the half-life in the data set “physchem [2]” (pH 6.5) and in “physchem [2]” (pH 7.4) were 3.9 ± 0.05 h and 1.1 ± 0.02 h, respectively.
Consider `CC(OC(=O)[C@@H](NC(=O)[C@@H](N)CCCCN)C(C)(C)C)OC(=O)N1CCC(OC(=O)C(O)(c2ccccc2)c2ccccc2)CC1.Cl.Cl` (stereo partly drawn) [Compound 22, 1-(((S)-2-((S)-2,6-Diaminohexanamido)-3,3-dimethylbutanoyl)oxy)ethyl-4-(2-hydroxy-2,2-diphenylacetoxy)piperidine-1-carboxylate Dihydrochloride], for which the “rat blood T1/2 (h) pH 7.2” value worked out at 0.1 ± 0.01 h. For the same compound, the half-life in “in vitro [3]” was 0.2 h. Further, the “formation of monobasic intermediate (peptide amide bond hydrolysis)” value in data set [4] is given as “clearly showing the intermediate 15”. The compound also had a half-life in the data set “in vitro [5]” of 2.5 ± 0.07 h. In “physchem [2]” (pH 6.5), this compound had a half-life of 186 ± 0.79 h. This compound also had a half-life in “physchem [2]” (pH 7.4) of 67 ± 0.23 h.
As to `CC(OC(=O)[C@H](NC(=O)[C@@H](N)CCCCN)C(C)(C)C)OC(=O)N1CCC(OC(=O)C(O)(c2ccccc2)c2ccccc2)CC1.Cl.Cl` (stereo partly drawn) [Compound 23, 1-(((R)-2-((S)-2,6-Diaminohexanamido)-3,3-dimethylbutanoyl)oxy)ethyl-4-(2-hydroxy-2,2-diphenylacetoxy)piperidine-1-carboxylate Dihydrochloride], the half-life in the data set “in vitro [3]” is 7 ± 0.82 h; in the data set “in vitro [5]” it was 25.4 ± 1.94 h; in “physchem [2]” (pH 6.5) it was 58.6 ± 4.91 h; in “physchem [2]” (pH 7.4), 36.6 ± 1.7 h. The “formation of monobasic intermediate (peptide amide bond hydrolysis)” value in data set [4] is “no evidence of intermediate 18”. For the same compound, in data set [6] (male, Sprague Dawley), the “23 in lung as % of the total dose delivered (calculated mass balance)” value is given as 54%. In addition, the “ratio of 23 to 1 in lung” value in data set [6] (male, Sprague Dawley) is ~27:1. Also, the “total lung concentration of 23” value in data set [6] (male, Sprague Dawley, 0.2 mg/kg) is 31.2 µM. In data set [6] (0.2 mg/kg), the “plasma concentration of 23 in words” value is “only a very low concentration”. In addition, the “appearance in dosing formulation” value in data set [7] was “clear solution”.
As for `CC(OC(=O)[C@@H](NC(=O)[C@@H](N)CCCCN)C(C)C)OC(=O)N1CCC(OC(=O)C(O)(c2ccccc2)c2ccccc2)CC1.Cl.Cl` (stereo partly drawn) [Compound 25, 1-((L-Lysyl-L-valyl)oxy)ethyl-4-(2-hydroxy-2,2-diphenylacetoxy)piperidine-1-carboxylate Dihydrochloride], the figures for the half-life in “in vitro [5]”, in “physchem [2]” (pH 6.5) and in “physchem [2]” (pH 7.4) were 0.6 ± 0.09 h, 14.4 ± 1.68 h and 4.4 ± 0.39 h, respectively.
Regarding `CC(OC(=O)[C@H](NC(=O)[C@@H](N)CCCCN)C(C)C)OC(=O)N1CCC(OC(=O)C(O)(c2ccccc2)c2ccccc2)CC1.Cl.Cl` (stereo partly drawn) [Compound 26, 1-((L-Lysyl-D-valyl)oxy)ethyl-4-(2-hydroxy-2,2-diphenylacetoxy)piperidine-1-carboxylate Dihydrochloride], the half-life in the data set “in vitro [3]” was 0.6 ± 0.07 h; in the data set “in vitro [5]” it was 3.4 ± 0.08 h; in the data set “physchem [2]” (pH 6.5), 8.7 ± 1.06 h; in “physchem [2]” (pH 7.4), 1.8 ± 0.2 h.
For the compound `CC[C@H](C)[C@H](N)C(=O)N[C@@H](CCCCN)C(=O)OC(C)OC(=O)N1CCC(OC(=O)C(O)(c2ccccc2)c2ccccc2)CC1.Cl.Cl` (stereo partly drawn) [Compound 27, 1-((L-Isoleucyl-L-lysyl)oxy)ethyl-4-(2-hydroxy-2,2-diphenylacetoxy)piperidine-1-carboxylate Dihydrochloride], the half-life in the data set “physchem [2]” (pH 6.5) was 4.9 ± 0.06 h; in the data set “physchem [2]” (pH 7.4), 0.9 ± 0.04 h.
With `CC(OC(=O)[C@H](CCCCN)NC(=O)CCN)OC(=O)N1CCC(OC(=O)C(O)(c2ccccc2)c2ccccc2)CC1.Cl.Cl` (stereo partly drawn) [Compound 28, 1-(((3-Aminopropanoyl)-L-lysyl)oxy)ethyl-4-(2-hydroxy-2,2-diphenylacetoxy)piperidine-1-carboxylate Dihydrochloride], the half-life is 0.7 ± 0.21 h in the data set “in vitro [5]”, 102 ± 3.86 h in “physchem [2]” (pH 6.5) and 11.5 ± 0.73 h in the data set “physchem [2]” (pH 7.4).

The term half-life denotes how long it takes for the measured level to halve. Read a high half-life as slow loss.
